Measured values reported in patent US9315458B2, “Nitrogen-containing heterocyclic compound” (Takeda Pharmaceutical Company Limited, priority 2014, dated 2016).
pEC50: −log10 of the molar value.

Legend:
[1] = target: T1, human M1 receptor (hCHRM1) (Homo sapiens, UniProt P11229); assay: Measurement of M1 receptor positive allosteric modulator (M1PAM) activity, calcium fluorescence (FLIPRtetra) with acetylcholine at EC20; type: cell-based; conditions: for activity (%) at 10 μM: 10 μM test compound, 100% = acetylcholine 1 μM, 0% = DMSO, acetylcholine at EC20; for pEC50: inflection point of concentration-dependent curve, CHO-K1 cells expressing hCHRM1, acetylcholine at EC20 (final 0.6-0.8 nM), read-out: IP value
T1 construct: expressed in transfected cells
T1 sequence (P11229 1-460): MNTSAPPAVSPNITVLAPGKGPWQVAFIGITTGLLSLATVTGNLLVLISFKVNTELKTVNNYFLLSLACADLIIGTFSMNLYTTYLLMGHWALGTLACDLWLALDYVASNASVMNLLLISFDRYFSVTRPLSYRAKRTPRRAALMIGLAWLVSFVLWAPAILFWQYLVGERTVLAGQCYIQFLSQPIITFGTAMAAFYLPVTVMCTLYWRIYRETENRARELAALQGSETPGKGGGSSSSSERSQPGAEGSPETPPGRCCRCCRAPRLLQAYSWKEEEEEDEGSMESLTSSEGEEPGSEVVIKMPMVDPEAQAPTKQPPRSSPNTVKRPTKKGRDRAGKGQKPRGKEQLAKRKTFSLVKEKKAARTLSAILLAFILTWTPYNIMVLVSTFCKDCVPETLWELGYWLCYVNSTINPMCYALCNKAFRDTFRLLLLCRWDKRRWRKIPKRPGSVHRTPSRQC
Outline: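 CHO-K1 cells stably expressing hCHRM1, Fluo-4 AM loaded; compound added with acetylcholine at EC20 (final 0.6-0.8 nM), fluorescence read 1 min. Activity normalised to 1 μM acetylcholine (100%) and DMSO (0%); IP values taken as inflection point of the concentration-response curve.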

[2] = tested on: IP1 production in hippocampi; assay: Measurement of myo-inositol 1 phosphate (IP1) in hippocampus after oral administration; type: in vivo, male Long-Evans rats; conditions: 10 mg/kg oral, rat hippocampus, IP1/protein ratio, lithium chloride s.c.
Description: Animals used were male Long-Evans rats. They were used after acclimation for at least 1 week. Test compounds were suspended in 0.5% aqueous methylcellulose solution, and the suspension was orally administered to the rats. At a certain period of time after the oral administration, the solution prepared by dissolving lithium chloride in saline was subcutaneously administered into the rats. At a certain period of time after the subcutaneously administration, their bilateral hippocampi were isolated from the rats, and the wet weight thereof was measured. The hippocampi were homogenized with HEPES buffer, followed by centrifugation. The IP1 and protein concentrations in the supernatant were measured by IP-One HTRF assay kit (Cisbio Bioassays) and BCA protein assay kit (Thermo Scientific), respectively. The level of the IP1 production was expressed as the ratio of the concentration of IP1 to that of protein. The increase rate of the IP1 production was shown as a relative value when Vehicle administration group as 100%.

[3] = tested on: Scopolamine-induced memory deficits models; assay: Novel object recognition test; type: in vivo, male Long-Evans rats; conditions: scopolamine 0.1 mg/kg s.c., mean±standard error
Description: Novel object recognition test is comprised of two trials called the acquisition and the retention trials. Scopolamine-induced memory deficits models were used for the test, and animals used were male Long-Evans rats (7-week-old). On the day before the test, for acclimation, the rats were allowed to freely move about the test box (40×40×50 cm) for 10 minutes. On the test day, the rats were acclimated to the test room for about 1 hr prior to the test. The test compounds were orally administered to the rats in a single dose 2 hr before the acquisition trial. For induction of learning and memory deficits, scopolamine (0.1 mg/kg) was subcutaneously administered into the rats 30 min before the acquisition trial. For the acquisition trial, two identical objects (A1, A2) were placed in the test box. The rats were put in the test box for 3 min, and the duration exploring each object was measured. The retention trial was performed 4 hr after the acquisition trial. For the retention trial, the familiar object (A3) used for the acquisition trial and the novel object (B) different shape from A3 were placed in the test box. The rats were put in the test box for 3 min. The duration exploring each object in the acquisition trial and the retention trial, and the exploration rate (%) of novel object was calculated. The exploration rate (%) of novel object was expressed as (the duration exploring the novel object)/[(the duration exploring the novel object)+(the duration exploring the familiar object)]×100(%) at mean±standard error.

Row | activity (%) at 10 μM [1] [%] | pEC50 [1] | Compound | increase rate at 10 mg/kg (% of Vehicle) [2] | exploration rate (%) of novel object ([3]; 3 mg/kg oral 2 hr before acquisition trial, control 66.4±2.3%, solvent-scopolamine 50.4±2.4%) [%] | exploration rate (%) of novel object ([3]; 10 mg/kg oral 2 hr before acquisition trial, control 62.37±3.24%, solvent-scopolamine 48.39±2.01%) [%]
1 | 109 | 8.26 | Cc1c(Cc2ccc(-n3cccn3)cc2)cc2c(c1F)CN([C@H]1COCC[C@@H]1O)C2=O [Example 20, 4-fluoro-2-[(3S,4S)-4-hydroxytetrahydro-2H-pyran-3-yl]-5-methyl-6-[4-(1H-pyrazol-1-yl)benzyl]-2,3-dihydro-1H-isoindol-1-one] | 108 % of Vehicle | 61.2±3.1 | 
2 | 90 | 8.00 | Cc1ccc(Cc2cc3c(c(C)c2C)CN([C@H]2CCCC[C@@H]2O)C3=O)cn1 [Example 25, 2-((1S,2S)-2-hydroxycyclohexyl)-4,5-dimethyl-6-((6-methylpyridin-3-yl)methyl)isoindolin-1-one] | 32 % of Vehicle |  | 57.55±5.03
